# From ChEMBL document CHEMBL5338805, “Discovery of the First Subnanomolar PPARα/δ Dual Agonist for the Treatment of Cholestatic Liver Diseases” (J Med Chem, 2023)
# How the values were obtained:
# Type in all cases: cell-based
# [1] = molecular target: T1, Peroxisome proliferator-activated receptor gamma (Homo sapiens, UniProt P37231); assay: Agonist activity at human PPARgamma transfected in african green monkey COS7 cells assessed transactivation incubated for 16 hrs by luciferase assay
# T1 sequence (P37231 whole entry): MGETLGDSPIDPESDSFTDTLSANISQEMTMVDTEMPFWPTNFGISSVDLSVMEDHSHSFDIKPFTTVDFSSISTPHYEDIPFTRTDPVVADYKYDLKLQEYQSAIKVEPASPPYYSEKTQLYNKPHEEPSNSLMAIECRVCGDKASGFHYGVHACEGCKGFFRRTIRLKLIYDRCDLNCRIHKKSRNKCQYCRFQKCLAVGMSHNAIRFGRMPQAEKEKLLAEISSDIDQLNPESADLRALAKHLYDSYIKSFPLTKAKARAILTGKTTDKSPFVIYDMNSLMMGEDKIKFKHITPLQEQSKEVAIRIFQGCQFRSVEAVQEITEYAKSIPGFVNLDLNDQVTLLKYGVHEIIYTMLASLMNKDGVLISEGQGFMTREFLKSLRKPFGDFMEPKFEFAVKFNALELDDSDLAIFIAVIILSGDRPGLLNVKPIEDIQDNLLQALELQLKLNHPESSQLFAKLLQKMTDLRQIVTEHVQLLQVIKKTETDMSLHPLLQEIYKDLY
# [2] = molecular target: T2, Peroxisome proliferator-activated receptor alpha (Homo sapiens, UniProt Q07869); assay: Agonist activity at human PPARalpha transfected in african green monkey COS7 cells assessed transactivation incubated for 16 hrs by luciferase assay
# T2 sequence (Q07869 whole entry): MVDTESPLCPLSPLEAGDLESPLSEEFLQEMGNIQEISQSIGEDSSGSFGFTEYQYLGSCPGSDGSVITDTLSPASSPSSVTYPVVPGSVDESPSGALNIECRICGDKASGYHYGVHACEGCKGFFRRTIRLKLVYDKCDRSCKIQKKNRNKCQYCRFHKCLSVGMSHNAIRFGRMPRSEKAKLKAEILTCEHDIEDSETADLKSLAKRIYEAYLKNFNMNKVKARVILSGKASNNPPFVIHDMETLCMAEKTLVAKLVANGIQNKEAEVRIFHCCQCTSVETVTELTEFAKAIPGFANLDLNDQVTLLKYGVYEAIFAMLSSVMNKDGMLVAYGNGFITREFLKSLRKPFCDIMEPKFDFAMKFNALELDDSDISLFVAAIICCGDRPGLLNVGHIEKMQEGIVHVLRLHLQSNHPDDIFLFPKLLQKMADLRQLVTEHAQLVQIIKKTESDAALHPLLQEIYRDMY
# [3] = molecular target: Peroxisome proliferator-activated receptor delta (Homo sapiens, UniProt Q03181); assay: Agonist activity at human PPARdelta transfected in african green monkey COS7 cells assessed transactivation incubated for 16 hrs by luciferase assay
# Sequence of Peroxisome proliferator-activated receptor delta (Q03181 whole entry): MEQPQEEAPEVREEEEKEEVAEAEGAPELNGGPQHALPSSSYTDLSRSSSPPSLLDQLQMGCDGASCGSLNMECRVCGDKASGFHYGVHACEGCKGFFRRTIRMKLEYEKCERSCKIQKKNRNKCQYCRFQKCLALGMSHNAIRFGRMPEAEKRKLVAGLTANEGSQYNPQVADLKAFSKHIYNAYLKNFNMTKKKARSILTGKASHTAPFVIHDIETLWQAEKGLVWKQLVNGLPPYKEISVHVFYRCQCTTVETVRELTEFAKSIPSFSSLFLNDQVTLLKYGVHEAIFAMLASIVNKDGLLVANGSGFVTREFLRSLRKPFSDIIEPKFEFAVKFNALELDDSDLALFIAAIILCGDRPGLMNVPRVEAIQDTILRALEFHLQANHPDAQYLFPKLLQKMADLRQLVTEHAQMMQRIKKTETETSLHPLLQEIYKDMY
SMILES,EC50 [1] [µM],EC50 [2] [µM],EC50 [3] [µM]
Cc1cc(CN2C(=O)CN(c3ccccc3C(F)(F)F)C2=O)cc(C)c1OC(C)(C)C(=O)O,> 5,> 5,–
CSc1ccc(N2CC(=O)N(Cc3cc(C)c(OC(C)(C)C(=O)O)c(C)c3)C2=O)cc1,1.17,0.0027,0.0082
Cc1cc(Cn2ncn(-c3ccc(OC(F)(F)F)cc3)c2=O)cc(C)c1OC(C)(C)C(=O)O,–,0.0074,–
Cc1cc(CCN2C(=O)CN(c3ccc(C(F)(F)F)cc3)C2=O)cc(C)c1OC(C)(C)C(=O)O,0.277,–,–
Cc1cc(CN2C(=O)CN(c3ccc(OC(F)(F)F)cc3)C2=O)cc(C)c1OC(C)(C)C(=O)O,1.39,–,–
Cc1cc(CN2C(=O)CN(c3ccc(C(F)(F)F)cc3)C2=O)cc(C)c1OC(C)C(=O)O (stereo unspecified),> 5,–,0.0084
Cc1cc(N2C(=O)CN(c3ccc(C(F)(F)F)cc3)C2=O)cc(C)c1OC(C)(C)C(=O)O,> 5,–,–
